Results reported in patent US20030105118A1, “Tricyclic quinazolinediones” (priority 2002, published 2003).
Counter-ions that a name gives are not always drawn.

target: T1, recombinant human PARP (Homo sapiens, UniProt P09874); experiment: PARP inhibitory activity ([3H]NAD incorporation, filter assay); format: biochemical; conditions: recombinant human PARP 2 units/ml, 0.3 μM [3H]NAD, DNA 3 μg/ml, room temperature 1.5 hour, duplicate; read-out: IC50 (inhibitory rate of PARP activity)
T1 construct: purchased Trevigen, Inc. (USA)
Method: PARP (recombinant human PARP, 660 units/mg) (Trevigen, Inc. (USA))
A buffer (50 mM Tris-HCl (pH8.0)/25 mM MgCl2 aqueous solution) was used in preparation of each solution.
To a 96-well round bottom plate made of polypropylene were added successively a test compound solution (20 μl/well), 1 μM [^3H]NAD (specific activity: 7 kBq/ml) containing 10 μg/ml of DNA (30 μl/well), and 4 units/ml (6 μg/ml) PARP solution (50 μl/well), and the plate was placed under room temperature for 1.5 hour for the reaction (final concentrations of each reagent in the reaction solution: DNA: 3 μg/ml; [^3H]NAD: 0.3 μM/specific activity of 2.1 kBq/ml; PARP: 2 units/ml (3 μg/ml)). The reaction was terminated by addition of a 24 mM benzamide (9 μl/well, 2 mM after the addition), and the PARP in the reaction solution was recovered by using a cell harvester (HARVESTER 96 (registered trade name), TOMTEC Inc. (USA)) on the glass fiber filter for plate. Said glass fiber filter had been soaked with 80% ethanol just prior to the recovary of PARP, and after the recovary of PARP, each well of the plate was washed four times with 80% ethanol, and the washings were also passed through the glass fiber filter. Said glass fiber filter was dried by heating with a microwave oven for 3 to 4 minutes, and put into a sample bag being sandwiched between 2 solid scintillant sheets, and said sample bag was sealed by heat sealing. The bag was put on a heater at about 50° C. to melt the scintillant with heat in order to penetrate it into the filter. The plate was cooled to room temperature, and the [^3H] count of poly(ADP-ribose) (cpm) bound to PARP was measured with a counter for plate (1450 MicroBeta (registered trade name) TriLux, PerkinElmer, Inc. (USA)) for 10 minutes per plate.
The inhibitory rate of PARP activity was calculated by the following equation. [formula]
The inhibitory rate of each test compound was measured in duplicate, and an IC50 value thereof was calculated therefrom.

T1 sequence (P09874 whole entry): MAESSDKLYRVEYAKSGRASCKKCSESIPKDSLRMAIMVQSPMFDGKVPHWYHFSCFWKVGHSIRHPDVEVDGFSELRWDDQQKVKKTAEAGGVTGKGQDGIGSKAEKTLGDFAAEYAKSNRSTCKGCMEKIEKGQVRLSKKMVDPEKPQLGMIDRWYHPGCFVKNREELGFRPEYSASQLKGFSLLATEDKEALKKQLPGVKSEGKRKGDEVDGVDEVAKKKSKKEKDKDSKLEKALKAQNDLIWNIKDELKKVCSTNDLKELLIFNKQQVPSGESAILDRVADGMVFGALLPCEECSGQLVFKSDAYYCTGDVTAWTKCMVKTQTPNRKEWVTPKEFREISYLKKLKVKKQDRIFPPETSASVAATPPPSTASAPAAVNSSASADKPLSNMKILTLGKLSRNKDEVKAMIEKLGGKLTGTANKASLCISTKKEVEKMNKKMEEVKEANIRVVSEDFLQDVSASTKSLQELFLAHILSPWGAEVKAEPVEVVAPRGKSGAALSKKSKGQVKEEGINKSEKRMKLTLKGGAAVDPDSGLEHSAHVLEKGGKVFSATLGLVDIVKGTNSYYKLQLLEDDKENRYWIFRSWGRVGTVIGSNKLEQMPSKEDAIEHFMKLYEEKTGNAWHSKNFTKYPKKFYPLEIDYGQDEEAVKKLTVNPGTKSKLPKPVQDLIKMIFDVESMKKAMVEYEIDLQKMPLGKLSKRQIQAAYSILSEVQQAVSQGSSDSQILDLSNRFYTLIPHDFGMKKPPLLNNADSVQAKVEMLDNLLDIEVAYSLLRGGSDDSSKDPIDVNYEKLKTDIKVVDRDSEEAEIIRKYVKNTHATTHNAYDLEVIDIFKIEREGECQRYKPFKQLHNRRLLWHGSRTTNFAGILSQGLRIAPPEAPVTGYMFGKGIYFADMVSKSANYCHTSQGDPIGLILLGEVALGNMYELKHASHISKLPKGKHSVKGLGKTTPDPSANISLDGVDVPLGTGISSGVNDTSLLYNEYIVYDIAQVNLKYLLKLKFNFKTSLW

Row | SMILES | IC50
1 | O=c1[nH]c(=O)n2c3c(cccc13)CC2 [Example 1, 5,6-dihydro-1H-pyrrolo[3,2,1-ij]quinazoline-1,3(2H)-dione] | 140 nM
2 | O=c1[nH]c(=O)n2c3c(cccc13)CCC2 [Example 2, 6,7-Dihydro-1H,5H-pyrido[3,2,1-ij]quinazoline-1,3(2H)-dione] | 52 nM
3 | CN(C)c1ccc(C(=O)NCC2Cc3cccc4c(=O)[nH]c(=O)n(c34)C2)cc1 (centres unmarked) [Example 29, 4-(Dimethylamino)-N-[(1,3-dioxo-2,3,6,7-tetrahydro-1H,5H-pyrido[3,2,1-ij]quinazolin-6-yl)methyl]benzamide] | < 5 nM
4 | O=C(NCC1Cc2cccc3c(=O)[nH]c(=O)n(c23)C1)C1CCNCC1 (centres unmarked) [Example 39, N-[(1,3-Dioxo-2,3,6,7-tetrahydro-1H,5H-pyrido[3,2,1-ij]quinazolin-6-yl)methyl]-4-piperidinecarboxamide hydrochloride] | 7.4 nM

test system: not given; experiment: not given; conditions: not given

Row | SMILES | melting point
5 | Cl.NCC1CCc2cccc3c(=O)[nH]c(=O)n1c23 (centres unmarked) | > 300 °C
6 | Cl.NCC1Cc2cccc3c(=O)[nH]c(=O)n1c23 (centres unmarked) | > 300 °C
7 | Cl.NCC1CCn2c(=O)[nH]c(=O)c3cccc1c32 (centres unmarked) | 190 °C (dec.)
8 | Cl.NCCC(=O)NCC1Cc2cccc3c(=O)[nH]c(=O)n1c23 (centres unmarked) | 290 to 296 °C (dec.)
9 | Cl.NCc1ccc(C(=O)NCC2Cc3cccc4c(=O)[nH]c(=O)n(c34)C2)cc1 (centres unmarked) | > 300 °C
10 | Cl.NC1Cc2cccc3c(=O)[nH]c(=O)n(c23)C1 (centres unmarked) | > 300 °C
11 | O=c1[nH]c(=O)n2c3c(cccc13)CC2 [Example 1, 5,6-dihydro-1H-pyrrolo[3,2,1-ij]quinazoline-1,3(2H)-dione] | 314 to 315 °C
12 | O=c1[nH]c(=O)n2c3c(cccc13)CCC2 [Example 2, 6,7-Dihydro-1H,5H-pyrido[3,2,1-ij]quinazoline-1,3(2H)-dione] | 282 to 284 °C
13 | O=c1[nH]c(=O)n2c3c(cccc13)CCC2CO (centres unmarked) [Example 3, 5-(hydroxymethyl)-6,7-dihydro-1H,5H-pyrido[3,2,1-ij]-quinazoline-1,3(2H)-dione] | 205 to 207 °C
14 | O=c1[nH]c(=O)n2c3c(cccc13)CC2CO (centres unmarked) [Example 4, 5-(Hydroxymethyl)-5,6-dihydro-1H-pyrrolo[3,2,1-ij]quinazoline-1,3(2H)-dione] | 238 to 240 °C
15 | O=c1[nH]c(=O)n2c3c(cccc13)CC(CO)C2 (centres unmarked) [Example 5, 6-(Hydroxymethyl)-6,7-dihydro-1H,5H-pyrido[3,2,1-ij]quinazoline-1,3(2H)-dione] | 252 to 254 °C
16 | O=c1[nH]c(=O)n2c3c(cccc13)C(CO)CC2 (centres unmarked) [Example 6, 7-(Hydroxymethyl)-6,7-dihydro-1H,5H-pyrido[3,2,1-ij]quinazoline-1,3(2H)-dione] | 226 °C (dec.)
17 | O=c1[nH]c(=O)n2c3c(cccc13)CC(CBr)C2 (centres unmarked) [Example 9, 6-(Bromomethyl)-6,7-dihydro-1H,5H-pyrido[3,2,1-ij]quinazoline-1,3(2H)-dione] | 267 to 270 °C (dec.)
18 | O=c1[nH]c(=O)n2c3c(cccc13)C(CBr)CC2 (centres unmarked) [Example 10, 7-(Bromomethyl)-6,7-dihydro-1H,5H-pyrido[3,2,1-ij]quinazoline-1,3(2H)-dione] | 225 °C (dec.)
19 | O=C(NCC1Cc2cccc3c(=O)[nH]c(=O)n(c23)C1)c1ccncc1 (centres unmarked) [Example 23, N-[(1,3-Dioxo-2,3,6,7-tetrahydro-1H,5H-pyrido[3,2,1-ij]quinazolin-6-yl)methyl]isonicotinamide] | 282 to 285 °C
20 | O=C(NCC1Cc2cccc3c(=O)[nH]c(=O)n(c23)C1)c1ccccn1 (centres unmarked) [Example 24, N-[(1,3-Dioxo-2,3,6,7-tetrahydro-1H,5H-pyrido[3,2,1-ij]quinazolin-6-yl)methyl]-2-pyridinecarboxamide] | 247 to 250 °C
21 | O=C(Cc1ccccc1)NCC1Cc2cccc3c(=O)[nH]c(=O)n(c23)C1 (centres unmarked) [Example 26, N-[(1,3-Dioxo-2,3,6,7-tetrahydro-1H,5H-pyrido[3,2,1-ij]quinazolin-6-yl)methyl]-2-phenylacetamide] | 275 °C (dec.)
22 | CN(C)c1ccccc1C(=O)NCC1Cc2cccc3c(=O)[nH]c(=O)n(c23)C1 (centres unmarked) [Example 27, 2-(Dimethylamino)-N-[(1,3-dioxo-2,3,6,7-tetrahydro-1H,5H-pyrido[3,2,1-ij]quinazolin-6-yl)methyl]benzamide] | 220 to 236 °C
23 | CN(C)c1cccc(C(=O)NCC2Cc3cccc4c(=O)[nH]c(=O)n(c34)C2)c1 (centres unmarked) [Example 28, 3-(Dimethylamino)-N-[(1,3-dioxo-2,3,6,7-tetrahydro-1H,5H-pyrido[3,2,1-ij]quinazolin-6-yl)methyl]benzamide] | 158 to 170 °C
24 | CN(C)c1ccc(C(=O)NCC2Cc3cccc4c(=O)[nH]c(=O)n(c34)C2)cc1 (centres unmarked) [Example 29, 4-(Dimethylamino)-N-[(1,3-dioxo-2,3,6,7-tetrahydro-1H,5H-pyrido[3,2,1-ij]quinazolin-6-yl)methyl]benzamide] | 268 to 278 °C (dec.)
25 | O=C(NCC1Cc2cccc3c(=O)[nH]c(=O)n(c23)C1)C1CCCCC1 (centres unmarked) [Example 30, N-[(1,3-Dioxo-2,3,6,7-tetrahydro-1H,5H-pyrido[3,2,1-ij]quinazolin-6-yl)methyl]cyclohexanecarboxamide] | 280 to 281 °C (dec.)
26 | O=C(NCC1Cc2cccc3c(=O)[nH]c(=O)n(c23)C1)c1cnccn1 (centres unmarked) [Example 31, N-[(1,3-Dioxo-2,3,6,7-tetrahydro-1H,5H-pyrido[3,2,1-ij]quinazolin-6-yl)methyl]-2-pyrazinecarboxamide] | 255 to 257 °C (dec.)
27 | O=C(NCC1Cc2cccc3c(=O)[nH]c(=O)n(c23)C1)c1ccnnc1 (centres unmarked) [Example 32, N-[(1,3-Dioxo-2,3,6,7-tetrahydro-1H,5H-pyrido[3,2,1-ij]quinazolin-6-yl)methyl]-4-pyridazinecarboxamide] | 279 to 281 °C (dec.)
28 | CN(C)Cc1ccc(C(=O)NCC2Cc3cccc4c(=O)[nH]c(=O)n(c34)C2)cc1 (centres unmarked) [Example 33, 4-[(Dimethylamino)methyl]-N-[(1,3-dioxo-2,3,6,7-tetrahydro-1H,5H-pyrido[3,2,1-ij]quinazolin-6-yl)methyl]benzamide] | 240 to 243 °C (dec.)
29 | CN1CCC(C(=O)NCC2Cc3cccc4c(=O)[nH]c(=O)n(c34)C2)CC1 (centres unmarked) [Example 34, N-[(1,3-Dioxo-2,3,6,7-tetrahydro-1H,5H-pyrido[3,2,1-ij]quinazolin-6-yl)methyl]-1-methyl-4-piperidinecarboxamide] | 246 to 250 °C (dec.)
30 | O=C(NCC1Cc2cccc3c(=O)[nH]c(=O)n(c23)C1)C1CCN(Cc2ccccc2)CC1 (centres unmarked) [Example 35, 1-Benzyl-N-[(1,3-dioxo-2,3,6,7-tetrahydro-1H,5H-pyrido[3,2,1-ij]-quinazolin-6-yl)methyl]-4-piperidinecarboxamide] | 240 to 242 °C (dec.)
31 | O=c1[nH]c(=O)n2c3c(cccc13)C(O)C2 (centres unmarked) [Example 46, 6-hydroxy-5,6-dihydro-1H-pyrrolo[3,2,1-ij]quinazoline-1,3(2H)-dione] | 260 to 266 °C (dec.)
32 | O=c1[nH]c(=O)n2c3c(cccc13)CCCC2 [Example 48, 5,6,7,8-Tetrahydro-1H-azepino[3,2,1-ij]quinazoline-1,3(2H)-dione] | 192 to 196 °C
